Experimental data taken from PubChem BioAssay AID1963974 (Molecular Pharmacology Branch, DTP, NCI, 2024).

Test system: 648629-189-R-J1-PDC spheroids with HUVEC/MSC, viability
Assay: Anticancer human tumor 648629-189-R-J1-PDC patient-derived bladder carcinoma cell line growth inhibition [PI3K]
Settings: for IC50: curve of first compound; for viability, T/C: stronger effect = lower value; active = viability on the fitted dose curve at most 10% of control; inactive = the rest
Description: Combinatorial screen of targeted agents with the PI3K inhibitors inavolisib, alpelisib, duvelisib, and copanlisib in multi-cell type tumor spheroids
A high-throughput screen of multi-cell type tumor spheroids was designed to identify active combinations of targeted small molecules and PI3K pathway inhibitors. Complex spheroids include a stromal component modeled by human endothelial cells (HUVEC) and fibroblasts modeled by human mesenchymal stem cells (MSCs). The concentration ranges selected for each drug and investigational agent were based upon clinically achievable concentrations if the clinical Cmax of the agent was known.
Compounds. The drugs and investigational agents: inavolisib (NSC800729), alpelisib (NSC765974), duvelisib (NSC772469), copanlisib (NSC816437), ipatasertib (NSC767898), afuresertib (NSC778305), talazoparib (NSC767125), sapanisertib (NSC764658), selumetinib (NSC741078), tovorafenib (DAY101, NSC766906), vemurafenib (NSC761431), ravoxertinib (NSC781343), sotorasib (NSC818433), MRTX1133 (NSC 836407), abemaciclib (NSC 768073), palbociclib (NSC758247), venetoclax (NSC 766270), SY5609 (NSC837396), enzalutamide (NSC755605), and darolutamide (NSC825331), were obtained from the National Cancer Institute (NCI) Developmental Therapeutics Program Chemical Repository. The FDA-approved anticancer drug set is available from the NCI Developmental Therapeutics Program. […] The stock solutions were prepared in dimethyl sulfoxide (DMSO, Sigma-Aldrich, St. Louis, MO, cat. D2650) at 800-fold the tested concentration and stored at -70 degrees C prior to their use. All drugs and investigational agents were tested over a range starting from a high concentration at or near the clinical Cmax and decreasing in half-log increments. If the clinical Cmax for an agent had not been determined, the highest concentration tested was 10 microM.
Cell Culture. All cells were maintained in an incubator at 37 degrees C and 5% CO2 with 95% humidity. The PDC lines were cultured according to standard operating procedures established by the NCI PDMR (https://pdmr.cancer.gov/sops/default.htm). All PDCs were thawed and cultured in Matrigel-coated flasks prepared with a working solution of 1X Ham's F-12 nutrient mix, without supplementation (Invitrogen, Waltham, MA, cat. 11765054), 100 U/mL penicillin-streptomycin (Invitrogen, cat. 15140122), and 2.5% Matrigel (Corning Inc., Corning, NY, cat. 354248) for the first three passages. The 354836-022-R-J1-PDC, 475296-252-R-J1-PDC, and 997726-040-R-J2-PDC lines were cultured in 6A media, which includes advanced DMEM/F-12 (Thermo Fisher Scientific, cat. 12634028), 10 mM HEPES (Thermo Fisher Scientific, cat. 15630080), 1X GlutaMAX supplement (Thermo Fisher Scientific, cat. 35050061), 0.1 mg/mL primocin (InvivoGen, San Diego, CA, cat. ant-pm-2), 10% defined fetal bovine serum, heat inactivated (HyClone Laboratories Inc., Logan, UT, cat. SH30070.03HI), 50% L-WRN conditioned media (ATCC, cat. CRL-3276), 1.25 mM N-Acetyl-L-cysteine (Sigma-Aldrich, cat. A9165), 10 mM nicotinamide (Sigma-Aldrich, cat. N0636), 1X B-27 supplement (Thermo Fisher Scientific, cat. 17504044), 1X N-2 supplement (Thermo Fisher Scientific, cat. 17502048), and 10 microM Y-27632 dihydrochloride (Tocris Bioscience, Bristol, United Kingdom, cat. 1254). The 624824-186-R-J2-PDC line was cultured in 6C/Colon 1B media, which includes all 6A media components plus 50 ng/mL human EGF recombinant protein (Thermo Fisher Scientific, cat. PHG0311). […]
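Also: spheroids exposed to agents for seven days before reading.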
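For viability, T/C in this document: percent of vehicle control luminescence where 100% = DMSO treated spheroids.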

Cn1ncnc1[C@H]1c2n[nH]c(=O)c3cc(F)cc(c23)N[C@@H]1c1ccc(F)cc1 + Cc1nc(NC(=O)N2CCCC2C(N)=O)sc1-c1ccnc(C(C)(C)C(F)(F)F)c1
15.9 nM: IC50 (second compound 3.16 µM)
89.4 nM: IC50 (second compound 1 µM)
inactive: viability, T/C (second compound 0.0316 µM, first compound 0.000316 µM) 117% | viability, T/C (second compound 0.0316 µM, first compound 0.001 µM) 101% | viability, T/C (second compound 0.0316 µM, first compound 0.00316 µM) 91.2% | viability, T/C (second compound 0.0316 µM, first compound 0.01 µM) 82.1% | viability, T/C (second compound 0.0316 µM, first compound 0.0316 µM) 83.4% | viability, T/C (second compound 0.0316 µM, first compound 0.1 µM) 64.7% | viability, T/C (second compound 0.1 µM, first compound 0.000316 µM) 115% | viability, T/C (second compound 0.1 µM, first compound 0.001 µM) 96.9% | viability, T/C (second compound 0.1 µM, first compound 0.00316 µM) 93.5% | viability, T/C (second compound 0.1 µM, first compound 0.01 µM) 77.8% | viability, T/C (second compound 0.1 µM, first compound 0.0316 µM) 80.4% | viability, T/C (second compound 0.1 µM, first compound 0.1 µM) 58.6% | viability, T/C (second compound 0.316 µM, first compound 0.000316 µM) 85.8% | viability, T/C (second compound 0.316 µM, first compound 0.001 µM) 94.5% | viability, T/C (second compound 0.316 µM, first compound 0.00316 µM) 90.8% | viability, T/C (second compound 0.316 µM, first compound 0.01 µM) 78.3% | viability, T/C (second compound 0.316 µM, first compound 0.0316 µM) 68.2% | viability, T/C (second compound 0.316 µM, first compound 0.1 µM) 52.7% | viability, T/C (second compound 1 µM, first compound 0.000316 µM) 73.8% | viability, T/C (second compound 1 µM, first compound 0.001 µM) 74.8% | viability, T/C (second compound 1 µM, first compound 0.00316 µM) 70.6% | viability, T/C (second compound 1 µM, first compound 0.01 µM) 74.9% | viability, T/C (second compound 1 µM, first compound 0.0316 µM) 60.8% | viability, T/C (second compound 1 µM, first compound 0.1 µM) 48.8% | viability, T/C (second compound 3.16 µM, first compound 0.000316 µM) 64.4% | viability, T/C (second compound 3.16 µM, first compound 0.001 µM) 57.6% | viability, T/C (second compound 3.16 µM, first compound 0.00316 µM) 58.4% | viability, T/C (second compound 3.16 µM, first compound 0.01 µM) 48.7% | viability, T/C (second compound 3.16 µM, first compound 0.0316 µM) 49.7% | viability, T/C (second compound 3.16 µM, first compound 0.1 µM) 43.5% | viability, T/C (second compound 10 µM, first compound 0.000316 µM) 40.6% | viability, T/C (second compound 10 µM, first compound 0.001 µM) 36.1% | viability, T/C (second compound 10 µM, first compound 0.00316 µM) 39.7% | viability, T/C (second compound 10 µM, first compound 0.01 µM) 35% | viability, T/C (second compound 10 µM, first compound 0.0316 µM) 29.7% | viability, T/C (second compound 10 µM, first compound 0.1 µM) 28.5%
> 100 nM: IC50 (second compound 0.0316 µM) | IC50 (second compound 0.1 µM) | IC50 (second compound 0.316 µM)
< 0.316 nM: IC50 (second compound 10 µM)
